Experimental data: publication PMC6271529, “Studies on the Anticonvulsant Activity and Influence on GABA-ergic Neurotransmission of 1,2,4-Triazole-3-thione-Based Compounds” (Molecules, 2014)
Where two headings read alike, the source gives them in different places.

Key:
[1] = system: maximal electroshock-induced seizures; test: Maximal electroshock-induced seizure (MES) test in mice; format: in vivo, mouse; conditions: for responders at 300 mg/kg / ED50: Mus musculus, ip; for responders at 300 mg/kg: read-out: percent of animals protected against MES-induced seizures; for ED50: read-out: ED50 ± S.E. (MES test); for PI (TD50/ED50): protective index
Protocol: Additionally, all efforts were made to minimize animal suffering and to use only the number of animals necessary to produce reliable scientific data.
In the initial stage of the study, groups of eight mice were supplied with the compounds (administered intraperitoneally) in a dose of 300 mg/kg and then exposed to electrical impulse at fixed intervals (15, 30, 60, 120 min).
Each mouse was used only once.
Fresh drug solutions were prepared on each day of experimentation and administered at 15, 30, 60 and 120 min. before the initiation of maximal electroconvulsions. Electroconvulsions were produced by a current (0.2 s stimulus duration; 500 V, 50 Hz, fixed current intensity of 25 mA) delivered via ear-clip electrodes by a Rodent Shocker generator (constant-current stimulator Type 221, Hugo Sachs Elektronik, Freiburg, Germany). The criterion for the occurrence of seizure activity was the tonic hind limb extension. The animals were administered with a constant dose of 300 mg/kg of each of the examined compounds and were subjected to MES-induced seizures. […] The animals were administered with different doses of the tested compounds so as to obtain a variable percentage of protection against maximal electroconvulsions, allowing the construction of dose-response relationship lines for each examined compound administered i.p. at various pretreatment times, according to Litchfield and Wilcoxon. Each ED50 value represents the dose of the studied compounds that is required to protect 50% of the animals tested against MES-induced seizures.

GABAA receptors = test: Radioligand binding assay, [3H]muscimol, rat cerebral cortex; conditions: compound 1 × 10^−6 M, [3H]muscimol, rat cerebral cortex;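 also: low percentages indicate weak binding of the compound to the receptor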
Protocol: Binding experiments were conducted in 96-well microplates in a total volume of 200 μL of appropriate buffer. The reaction mixture included 50 μL solution of test compound, 50 μL of radioligand, and […] the tissue suspension. Rat cerebral cortex was used for each receptor. […] Radioligand binding data were analyzed using iterative curve fitting routines (GraphPAD/Prism, Version 3.0, San Diego, CA, USA). Ki values were calculated from the Cheng and Prusoff equation [36].

[2] = system: benzodiazepine (BDZ)-binding sites; test: Radioligand binding assay, [3H]flunitrazepam, rat cerebral cortex; conditions: compound 1 × 10^−6 M;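 also: low percentages indicate weak binding of the compound to the site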
Protocol: Binding experiments were conducted in 96-well microplates in a total volume of 200 μL of appropriate buffer. The reaction mixture included 50 μL solution of test compound, 50 μL of radioligand, and […] the tissue suspension. Rat cerebral cortex was used for each receptor. The radioactivity was measured in MicroBeta TriLux 1450-liquid scintillation counter (PerkinElmer, Waltham, MA, USA). Radioligand binding data were analyzed using iterative curve fitting routines (GraphPAD/Prism, Version 3.0, San Diego, CA, USA). Ki values were calculated from the Cheng and Prusoff equation [36].

[3] = 300 mg/kg i.p., pretreatment time 15 min, mice
[4] = 300 mg/kg i.p., pretreatment time 30 min, mice
[5] = 300 mg/kg i.p., pretreatment time 60 min, mice
[6] = 300 mg/kg i.p., pretreatment time 120 min, mice
[7] = 0.25 h, 300 mg/kg i.p., pretreatment time 15 min, mice
[8] = 0.5 h, 300 mg/kg i.p., pretreatment time 30 min, mice
[9] = 1 h, 300 mg/kg i.p., pretreatment time 60 min, mice
[10] = 2 h, 300 mg/kg i.p., pretreatment time 120 min, mice

S=c1[nH]nc(-c2cccc(Cl)c2)n1-c1ccccc1Br [Compound 5a, 4-(2-Bromophenyl)-5-(3-chlorophenyl)-2,4-dihydro-3H-1,2,4-triazole-3-thione]
p/t, number of animals protected against MES-induced seizures / number tested [1, 3]: 0/8
p/t, number of animals protected against MES-induced seizures / number tested [1, 4]: 0/8
p/t, number of animals protected against MES-induced seizures / number tested [1, 5]: 1/8
p/t, number of animals protected against MES-induced seizures / number tested [1, 6]: 1/8
responders at 300 mg/kg [1, 7]: 0%
responders at 300 mg/kg [1, 8]: 0%
responders at 300 mg/kg [1, 9]: 12.5%
responders at 300 mg/kg [1, 10]: 12.5%
Percent of Specific Binding, GABAA (GABAA receptors): 2%
Percent of Specific Binding, BDZ [2]: 12%

S=c1[nH]nc(-c2ccc(Cl)cc2)n1-c1ccc(Cl)cc1Cl [Compound 14a, 5-(4-Chlorophenyl)-4-(2,4-dichlorophenyl)-2,4-dihydro-3H-1,2,4-triazole-3-thione]
acute adverse effects at the screening dose ([1]; 300 mg/kg i.p., mice, protective effect in MES could not be established): acute adverse effects
melting point: 238 to 240 °C

S=c1[nH]nc(-c2ccc(Cl)cc2)n1-c1ccc(Br)cc1 [Compound 16a, 4-(4-Bromophenyl)-5-(4-chlorophenyl)-2,4-dihydro-3H-1,2,4-triazole-3-thione]
p/t, number of animals protected against MES-induced seizures / number tested [1, 3]: 5/8
p/t, number of animals protected against MES-induced seizures / number tested [1, 4]: 7/8
p/t, number of animals protected against MES-induced seizures / number tested [1, 5]: 8/8
p/t, number of animals protected against MES-induced seizures / number tested [1, 6]: 8/8
responders at 300 mg/kg [1, 7]: 62.5%
responders at 300 mg/kg [1, 8]: 87.5%
responders at 300 mg/kg [1, 9]: 100%
responders at 300 mg/kg [1, 10]: 100%
ED50 ([1]; pretreatment time 15 min, mice): 272 ± 21.4 mg/kg
ED50 ([1]; pretreatment time 30 min, mice): 182 ± 44.3 mg/kg
ED50 ([1]; pretreatment time 60 min, mice): 153 ± 23.5 mg/kg
ED50 ([1]; pretreatment time 120 min, mice): 141 ± 25.1 mg/kg
time to peak of the anticonvulsant action ([1]; after i.p. administration, MES, mice): 120 min
PI (TD50/ED50) ([1]; chimney TD50 / MES ED50, pretreatment time 15 min): 1.6
PI (TD50/ED50) ([1]; chimney TD50 / MES ED50, pretreatment time 30 min): 2.6
PI (TD50/ED50) ([1]; chimney TD50 / MES ED50, pretreatment time 60 min): 3.0
PI (TD50/ED50) ([1]; chimney TD50 / MES ED50, pretreatment time 120 min): 2.9
onset of action ([1]; significant protection as early as 15 min after parenteral administration, MES, mice): quick onset of action
Percent of Specific Binding, GABAA (GABAA receptors): 17%
Percent of Specific Binding, BDZ [2]: 24%

CCN(CC)c1ccc(-n2c(-c3ccc(Cl)cc3)n[nH]c2=S)cc1 [Compound 18a, 5-(4-Chlorophenyl)-4-[4-(diethylamino)phenyl]-2,4-dihydro-3H-1,2,4-triazole-3-thione]
p/t, number of animals protected against MES-induced seizures / number tested [1, 3]: 0/8
p/t, number of animals protected against MES-induced seizures / number tested [1, 4]: 0/8
p/t, number of animals protected against MES-induced seizures / number tested [1, 5]: 1/8
p/t, number of animals protected against MES-induced seizures / number tested [1, 6]: 0/8
responders at 300 mg/kg [1, 7]: 0%
responders at 300 mg/kg [1, 8]: 0%
responders at 300 mg/kg [1, 9]: 12.5%
responders at 300 mg/kg [1, 10]: 0%
melting point: 264 to 266 °C

S=c1n(CN2CCOCC2)nc(-c2ccc(Cl)cc2)n1-c1ccccc1Br [Compound 25a, 4-(2-Bromophenyl)-5-(4-chlorophenyl)-2-(morpholin-4-ylmethyl)-2,4-dihydro-3H-1,2,4-triazole-3-thione]
p/t, number of animals protected against MES-induced seizures / number tested [1, 3]: 0/8
p/t, number of animals protected against MES-induced seizures / number tested [1, 4]: 0/8
p/t, number of animals protected against MES-induced seizures / number tested [1, 5]: 0/8
p/t, number of animals protected against MES-induced seizures / number tested [1, 6]: 0/8
responders at 300 mg/kg [1, 7]: 0%
responders at 300 mg/kg [1, 8]: 0%
responders at 300 mg/kg [1, 9]: 0%
responders at 300 mg/kg [1, 10]: 0%
melting point: 180 to 181 °C

S=c1n(CN2CCN(c3ccccc3)CC2)nc(-c2ccc(Cl)cc2)n1-c1ccccc1Br [Compound 26a, 4-(2-Bromophenyl)-5-(4-chlorophenyl)-2-[(4-phenylpiperazin-1-yl)methyl]-2,4-dihydro-3H-1,2,4-triazole-3-thione]
p/t, number of animals protected against MES-induced seizures / number tested [1, 3]: 0/8
p/t, number of animals protected against MES-induced seizures / number tested [1, 4]: 0/8
p/t, number of animals protected against MES-induced seizures / number tested [1, 5]: 0/8
p/t, number of animals protected against MES-induced seizures / number tested [1, 6]: 0/8
responders at 300 mg/kg [1, 7]: 0%
responders at 300 mg/kg [1, 8]: 0%
responders at 300 mg/kg [1, 9]: 0%
responders at 300 mg/kg [1, 10]: 0%
melting point: 140 to 142 °C

Fc1ccc(N2CCN(Cn3nc(-c4ccc(Cl)cc4)n(-c4ccccc4Br)c3=S)CC2)cc1 [Compound 27a, 4-(2-Bromophenyl)-5-(4-chlorophenyl)-2-{[4-(4-fluorophenyl)piperazin-1-yl]methyl}-2,4-dihydro-3H-1,2,4-triazole-3-thione]
p/t, number of animals protected against MES-induced seizures / number tested [1, 3]: 0/8
p/t, number of animals protected against MES-induced seizures / number tested [1, 4]: 0/8
p/t, number of animals protected against MES-induced seizures / number tested [1, 5]: 0/8
p/t, number of animals protected against MES-induced seizures / number tested [1, 6]: 0/8
responders at 300 mg/kg [1, 7]: 0%
responders at 300 mg/kg [1, 8]: 0%
responders at 300 mg/kg [1, 9]: 0%
responders at 300 mg/kg [1, 10]: 0%
melting point: 168 to 170 °C

S=c1n(CN2CCN(c3ccccc3)CC2)nc(-c2ccc(Cl)cc2)n1-c1ccc(Br)cc1 [Compound 29a, 4-(4-Bromophenyl)-5-(4-chlorophenyl)-2-[(4-phenylpiperazin-1-yl)methyl]-2,4-dihydro-3H-1,2,4-triazole-3-thione]
p/t, number of animals protected against MES-induced seizures / number tested [1, 3]: 0/8
p/t, number of animals protected against MES-induced seizures / number tested [1, 4]: 0/8
p/t, number of animals protected against MES-induced seizures / number tested [1, 5]: 0/8
p/t, number of animals protected against MES-induced seizures / number tested [1, 6]: 0/8
responders at 300 mg/kg [1, 7]: 0%
responders at 300 mg/kg [1, 8]: 0%
responders at 300 mg/kg [1, 9]: 0%
responders at 300 mg/kg [1, 10]: 0%
melting point: 178 to 180 °C

Fc1ccc(N2CCN(Cn3nc(-c4ccc(Cl)cc4)n(-c4ccc(Br)cc4)c3=S)CC2)cc1 [Compound 30a, 4-(4-Bromophenyl)-5-(4-chlorophenyl)-2-{[4-(4-fluorophenyl)piperazin-1-yl]methyl}-2,4-dihydro-3H-1,2,4-triazole-3-thione]
p/t, number of animals protected against MES-induced seizures / number tested [1, 3]: 0/8
p/t, number of animals protected against MES-induced seizures / number tested [1, 4]: 0/8
p/t, number of animals protected against MES-induced seizures / number tested [1, 5]: 0/8
p/t, number of animals protected against MES-induced seizures / number tested [1, 6]: 0/8
responders at 300 mg/kg [1, 7]: 0%
responders at 300 mg/kg [1, 8]: 0%
responders at 300 mg/kg [1, 9]: 0%
responders at 300 mg/kg [1, 10]: 0%
melting point: 156 to 158 °C

CN1C(=O)CN=C(c2ccccc2)c2cc(Cl)ccc21 [Diazepam, reference compound]
Percent of Specific Binding, BDZ [2]: 83%

NCCCC(=O)O [GABA, γ-aminobutyric acid]
Percent of Specific Binding, GABAA (GABAA receptors): 82%

Cc1ccc(-c2nc3ccc(C)cn3c2CC(=O)N(C)C)cc1 [Zolpidem, reference compound]
Percent of Specific Binding, BDZ [2]: 73%
